{"source": "patent US20240373877A1", "about": "“ANIMAL FOOD PRODUCT AND METHOD AND APPARATUS THEREFOR” (priority 2023, published 2024)", "key": {"[1]": {"system": "bovine rumen microbes", "test": "Rumen microbial methane production in bovine rumen incubations", "assay_type": "cell-based", "settings": "Yeast 2%, Monensin 10 μM", "procedure": "THYM was also found to have a very pronounced inhibition of methane production by rumen microbes.\nBovine rumen microbes were incubated anaerobically for 24 hours at 39° C. with a silage: corn substrate. Bar A indicates basal control incubation, and bars B-G indicate additions. […] Monensin (Rumensin) was used as a positive inhibitory control. The hop acid content of the THYM samples in incubation bars E & F was 100 and 60 μg/ml for alpha and beta acids respectively, similar to the concentrations of alpha and beta acids, 100 μg/ml, added in bars B and C."}, "[2]": {"test": "Beef cattle feed trial (weight gain, feed efficiency, BUN)", "assay_type": "in vivo, Weanling Angus-X steers"}}, "data": [{"smiles": "CC[C@@]1([C@@H]2O[C@@H]([C@H]3O[C@@](O)(CO)[C@H](C)C[C@@H]3C)C[C@@H]2C)CC[C@H]([C@]2(C)CC[C@]3(C[C@H](O)[C@@H](C)[C@@H]([C@@H](C)[C@@H](OC)[C@H](C)C(=O)O)O3)O2)O1", "note": "[Monensin, monensin]", "values": [{"measurement": "inhibition at 10 µM", "setting": "[1]; THYM 0.4% (of DM), vs paired control, p < 0.05", "result": 68, "unit": "%"}, {"measurement": "Methane Production, Experiment AVG", "setting": "[1]; THYM 0.4%, N = 3 or 4", "result": 11152, "unit": "ppm"}, {"measurement": "Average Daily Gain", "setting": "[2]; 9 weeks, monensin 200 mg/animal or 1% THYM in rations", "result": 1.65, "unit": "kg/day"}, {"measurement": "Gain to Feed Ratio", "setting": "[2]; 9 weeks, monensin 200 mg/animal or 1% THYM in rations, M & T vs C p = 0.07", "result": 0.38, "unit": "kg/kg"}, {"measurement": "blood urea nitrogen (BUN) level", "setting": "[2]; feed trial, FIG. 6", "result": "significantly lower"}]}]}
